Assay [1] deals with C-Raf FL (Homo sapiens (Human), UniProt P04049, Y340E/Y341E). The experiment in a line: In vitro Raf activity determination (Alpha Screen, phospho-MEK), C-Raf FL (full length, Y340E/Y341E). The assay is classed as biochemical. The note with it: ATP 1 μM; 60 min pre-incubation; 1 hour reaction; column head does not say FL or TR. A digest of the protocol:
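Sf9-expressed C-Raf incubated with biotinylated kinase-dead MEK1 (K97R) in 50 mM Tris pH 7.5, 15 mM MgCl2, 0.01% BSA, 1 mM DTT with compound, 60 min at room temperature. Phospho-MEK detected by anti-p-MEK AlphaScreen luminescence; IC50 by non-linear regression.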

In assay [2] the target is b-Raf (V600E) (Homo sapiens (Human), UniProt P15056, V600E). Put plainly: In vitro Raf activity determination (Alpha Screen, phospho-MEK), b-Raf (V600E). The note with it: ATP 10 μM, 60 min pre-incubation, 3 hours reaction. It counts as biochemical.
Chain of b-Raf (V600E) (P15056 whole entry V600E): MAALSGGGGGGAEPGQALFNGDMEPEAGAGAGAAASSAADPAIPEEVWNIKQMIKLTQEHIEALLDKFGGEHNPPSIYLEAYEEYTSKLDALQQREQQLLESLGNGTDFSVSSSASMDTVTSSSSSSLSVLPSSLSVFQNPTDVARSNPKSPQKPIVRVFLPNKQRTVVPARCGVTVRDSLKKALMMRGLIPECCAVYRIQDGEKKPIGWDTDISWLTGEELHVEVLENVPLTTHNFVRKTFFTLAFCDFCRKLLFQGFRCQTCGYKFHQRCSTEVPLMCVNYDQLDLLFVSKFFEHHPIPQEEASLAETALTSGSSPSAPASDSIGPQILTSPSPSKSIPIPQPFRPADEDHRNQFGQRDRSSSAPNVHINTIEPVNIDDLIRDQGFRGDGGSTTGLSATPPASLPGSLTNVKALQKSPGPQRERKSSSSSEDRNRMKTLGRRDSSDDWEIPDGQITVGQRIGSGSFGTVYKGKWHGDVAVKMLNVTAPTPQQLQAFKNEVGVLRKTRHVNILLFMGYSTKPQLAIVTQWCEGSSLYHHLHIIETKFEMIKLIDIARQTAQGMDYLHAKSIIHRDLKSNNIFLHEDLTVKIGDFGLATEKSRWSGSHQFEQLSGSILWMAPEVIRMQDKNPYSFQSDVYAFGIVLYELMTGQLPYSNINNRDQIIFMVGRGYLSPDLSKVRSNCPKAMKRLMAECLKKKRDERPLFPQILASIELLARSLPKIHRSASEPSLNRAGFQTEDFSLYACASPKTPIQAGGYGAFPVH

Chain of C-Raf FL (P04049 whole entry Y340E/Y341E): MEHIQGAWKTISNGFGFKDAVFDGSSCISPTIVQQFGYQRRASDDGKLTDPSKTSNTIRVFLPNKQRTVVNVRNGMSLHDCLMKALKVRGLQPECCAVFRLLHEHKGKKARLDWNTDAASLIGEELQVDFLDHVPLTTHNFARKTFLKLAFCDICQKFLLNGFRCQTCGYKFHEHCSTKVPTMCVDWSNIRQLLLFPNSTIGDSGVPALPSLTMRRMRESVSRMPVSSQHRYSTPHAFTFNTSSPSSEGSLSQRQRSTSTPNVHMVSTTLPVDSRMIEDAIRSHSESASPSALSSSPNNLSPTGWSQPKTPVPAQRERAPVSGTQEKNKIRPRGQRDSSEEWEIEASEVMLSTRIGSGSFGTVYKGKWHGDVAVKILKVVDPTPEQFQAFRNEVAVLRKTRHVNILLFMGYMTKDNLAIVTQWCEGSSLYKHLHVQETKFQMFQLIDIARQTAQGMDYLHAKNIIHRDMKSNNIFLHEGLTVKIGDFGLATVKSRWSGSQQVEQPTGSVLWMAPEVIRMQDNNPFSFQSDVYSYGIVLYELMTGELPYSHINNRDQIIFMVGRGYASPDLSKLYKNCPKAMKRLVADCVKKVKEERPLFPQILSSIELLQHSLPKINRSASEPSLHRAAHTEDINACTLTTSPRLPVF
Chain of C-Raf FL (P63104 whole entry partner): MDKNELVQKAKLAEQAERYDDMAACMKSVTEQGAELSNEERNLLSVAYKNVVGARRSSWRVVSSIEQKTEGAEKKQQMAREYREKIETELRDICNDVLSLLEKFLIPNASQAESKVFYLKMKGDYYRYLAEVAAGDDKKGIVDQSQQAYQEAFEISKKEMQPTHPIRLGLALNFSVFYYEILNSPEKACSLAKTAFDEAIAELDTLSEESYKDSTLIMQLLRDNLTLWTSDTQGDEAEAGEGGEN

For `COc1ncc(-c2cc(NC(=O)c3cc(C(F)(F)F)ccn3)ccc2C)cc1C1(F)COC1` [Example 88, N-(3-(5-(3-fluorooxetan-3-yl)-6-methoxypyridin-3-yl)-4-methylphenyl)-4-(trifluoromethyl)picolin-amide], the values for the IC50 in assay [1] and in assay [2] were 0.303 nM and 0.934 nM, respectively.

Regarding `COc1ncc(-c2cc(NC(=O)c3cc(C(C)(F)F)ccn3)cnc2C)cc1C1(F)COC1` [Example 90, 4-(1,1-difluoroethyl)-N-(5′-(3-fluorooxetan-3-yl)-6′-methoxy-2-methyl-[3,3′-bipyridin]-5-yl)picolinamide], the half-maximal inhibitory concentration (IC50) in assay [1] was determined as 0.386 nM; in assay [2], 3.61 nM.

Regarding `COc1ncc(-c2cc(NC(=O)c3cc(C(C)(F)F)ccn3)ccc2C)cc1C1(O)COC1` [Example 92, 4-(1,1-difluoroethyl)-N-(3-(5-(3-hydroxyoxetan-3-yl)-6-methoxypyridin-3-yl)-4-methylphenyl)picolinamide], the IC50 was 0.333 nM in assay [1] and 2.2 nM in assay [2].

As to `COc1ncc(-c2cc(NC(=O)c3cc(C(C)(C)F)ccn3)cnc2C)cc1C1(F)COC1` [Example 93, N-(5′-(3-fluorooxetan-3-yl)-6′-methoxy-2-methyl-[3,3′-bipyridin]-5-yl)-4-(2-fluoropropan-2-yl)picolinamide], the half-inhibitory concentration (IC50) in assay [1] turned out to be 1.01 nM; in assay [2], 8.03 nM.

Regarding `COc1ncc(-c2cc(NC(=O)c3cc(C(C)(C)F)ccn3)cnc2C)cc1C1(O)COC1` [Example 94, 4-(2-fluoropropan-2-yl)-N-(5′-(3-hydroxyoxetan-3-yl)-6′-methoxy-2-methyl-[3,3′-bipyridin]-5-yl)picolinamide], the values for the IC50 in assay [1] and in assay [2] were 4.24 nM and 31.8 nM, respectively.

Regarding `COc1ncc(-c2cc(NC(=O)c3cc(C(C)(C)F)ccn3)ccc2C)cc1C1(O)COC1` [Example 95, 4-(2-fluoropropan-2-yl)-N-(3-(5-(3-hydroxyoxetan-3-yl)-6-methoxypyridin-3-yl)-4-methylphenyl)picolinamide], the IC50 in assay [1] was found to be 0.514 nM; in assay [2] it was 3.92 nM.

Consider `COc1ncc(-c2cc(NC(=O)c3cc(C(C)(C)O)ccn3)ccc2C)cc1C1(F)COC1` [Example 96, N-(3-(5-(3-fluorooxetan-3-yl)-6-methoxypyridin-3-yl)-4-methylphenyl)-4-(2-hydroxypropan-2-yl)picolinamide], for which the IC50 in assay [1] was 0.482 nM; in assay [2], 4.17 nM.

As to `COc1ncc(-c2cc(NC(=O)c3cccc(C(F)(F)F)c3)cnc2C)cc1C1(O)COC1` [Example 97, N-(5′-(3-hydroxyoxetan-3-yl)-6′-methoxy-2-methyl-[3,3′-bipyridin]-5-yl)-3-(trifluoromethyl)benzamide], the half-inhibitory concentration (IC50) in assay [1] came to 1.41 nM; in assay [2] it was 10.4 nM.

For the molecule `COc1ncc(-c2cc(NC(=O)c3ccnc(C(F)F)c3)ccc2C)cc1C1(O)COC1` [Example 98, 2-(difluoromethyl)-N-(3-(5-(3-hydroxyoxetan-3-yl)-6-methoxypyridin-3-yl)-4-methylphenyl)isonicotin-amide], the IC50 in assay [1] came to 1.11 nM; in assay [2], 13.1 nM.

For `COc1ncc(-c2cc(NC(=O)c3ccnc(C(C)(C)F)c3)ccc2C)cc1C1(O)COC1` [Example 99, 2-(2-fluoropropan-2-yl)-N-(3-(5-(3-hydroxyoxetan-3-yl)-6-methoxypyridin-3-yl)-4-methylphenyl)isonicotin-amide], the IC50 in assay [1] turned out to be 0.415 nM; in assay [2], 2.67 nM.

With `COc1ncc(-c2cc(NC(=O)c3ccnc(C4(C#N)CC4)c3)ccc2C)cc1C1(O)COC1` [Example 100], the IC50 in assay [1] stood at 0.3 nM; in assay [2] it was 2.2 nM.

As for `COc1ncc(-c2cc(NC(=O)c3cc(C(C)(C)N)cc(C(F)(F)F)c3)ccc2C)cc1C1(O)COC1` [Example 101, 3-(2-aminopropan-2-yl)-N-(3-(5-(3-hydroxyoxetan-3-yl)-6-methoxypyridin-3-yl)-4-methylphenyl)-5-(trifluoromethyl)benzamide], the IC50 in assay [1] came to 1.45 nM; in assay [2], 6.39 nM.

`COc1ncc(-c2cc(NC(=O)c3cc(C(C)(C)N)cc(C(F)(F)F)c3)cnc2C)cc1C1(F)COC1` [Example 102, 3-(2-aminopropan-2-yl)-N-(5′-(3-fluorooxetan-3-yl)-6′-methoxy-2-methyl-[3,3′-bipyridin]-5-yl)-5-(trifluoromethyl)benzamide]: the figures for the IC50 in assay [1] and in assay [2] were 2.68 nM and 13.2 nM, respectively.

For the molecule `COc1ncc(-c2cc(NC(=O)c3ccnc(C(C)(F)F)c3)ccc2C)cc1C1(CF)COC1` [Example 103, 2-(1,1-difluoroethyl)-N-(3-(5-(3-(fluoromethyl)oxetan-3-yl)-6-methoxypyridin-3-yl)-4-methylphenyl)isonicotin-amide], the IC50 was 0.0844 nM in assay [1] and 0.293 nM in assay [2].

As for `COc1ncc(-c2cc(NC(=O)c3ccnc(C(C)(C)F)c3)ccc2C)cc1C1(CF)COC1` [Example 104, N-(3-(5-(3-(fluoromethyl)oxetan-3-yl)-6-methoxypyridin-3-yl)-4-methylphenyl)-2-(2-fluoropropan-2-yl)isonicotinamide], the half-inhibitory concentration (IC50) in assay [1] is 0.128 nM; in assay [2] it was 0.417 nM.

On to `COc1ncc(-c2cc(NC(=O)c3ccnc(C(F)(F)F)c3)ccc2C)cc1C1(CF)COC1` [Example 105, N-(3-(5-(3-(fluoromethyl)oxetan-3-yl)-6-methoxypyridin-3-yl)-4-methylphenyl)-2-(trifluoromethyl)isonicotin-amide], for which the IC50 was 0.0915 nM in assay [1] and 0.323 nM in assay [2].

As to `COc1ncc(-c2cc(NC(=O)c3ccnc(C(C)(C)C#N)c3)ccc2C)cc1C1(CF)COC1` [Example 106, 2-(2-cyanopropan-2-yl)-N-(3-(5-(3-(fluoromethyl)oxetan-3-yl)-6-methoxypyridin-3-yl)-4-methylphenyl)isonicotin-amide], the IC50 in assay [1] amounted to 0.146 nM; in assay [2], 0.58 nM.

In the case of `COc1ncc(-c2cc(NC(=O)c3cc(C(C)(C)N)cc(C(F)(F)F)c3)ccc2C)cc1C1(F)COC1` [Example 107, 3-(2-aminopropan-2-yl)-N-(3-(5-(3-fluorooxetan-3-yl)-6-methoxypyridin-3-yl)-4-methylphenyl)-5-(trifluoromethyl)benzamide], the IC50 in assay [1] was 0.725 nM; in assay [2], 2.96 nM.

With `COc1ncc(-c2cc(NC(=O)c3cc(C(C)(C)N)cc(C(F)(F)F)c3)ccc2C)cc1C1(CF)COC1` [Example 108, 3-(2-aminopropan-2-yl)-N-(3-(5-(3-(fluoromethyl)oxetan-3-yl)-6-methoxypyridin-3-yl)-4-methylphenyl)-5-(trifluoromethyl)benzamide], the IC50 was 0.424 nM in assay [1] and 1.8 nM in assay [2].

Regarding `COc1ncc(-c2cc(NC(=O)c3cc(C(C)(C)N)cc(C(F)(F)F)c3)cnc2C)cc1C1(CF)COC1` [Example 109, 3-(2-aminopropan-2-yl)-N-(5′-(3-(fluoromethyl)oxetan-3-yl)-6′-methoxy-2-methyl-[3,3′-bipyridin]-5-yl)-5-(trifluoromethyl)benzamide], the IC50 in assay [1] was 2.24 nM; in assay [2], 9.5 nM.

On to `Cc1ccc(NC(=O)c2ccnc(C(C)(C)F)c2)cc1-c1cc(C2COC2)c(=O)n(C)c1` [Example 110, 2-(2-fluoropropan-2-yl)-N-(4-methyl-3-(1-methyl-5-(oxetan-3-yl)-6-oxo-1,6-dihydropyridin-3-yl)phenyl)isonicotinamide], for which the figures for the IC50 in assay [1] and in assay [2] were 1.52 nM and 9.98 nM, respectively.

For the molecule `COc1ncc(-c2cc(NC(=O)c3ccnc(C(C)(C)F)c3)ccc2C)cc1C1(C#N)COC1` [Example 111, N-(3-(5-(3-cyanooxetan-3-yl)-6-methoxypyridin-3-yl)-4-methylphenyl)-2-(2-fluoropropan-2-yl)isonicotinamide], the IC50 was determined as 0.716 nM in assay [1] and 2.75 nM in assay [2].

In the case of `COc1ncc(-c2cc(NC(=O)c3cc(C(C)(C)N)cc(C(F)(F)F)c3)ccc2C)cc1C1(C(F)F)COC1` [Example 112, 3-(2-aminopropan-2-yl)-N-(3-(5-(3-(difluoromethyl)oxetan-3-yl)-6-methoxypyridin-3-yl)-4-methylphenyl)-5-(trifluoromethyl)benzamide], the IC50 in assay [1] turned out to be 0.225 nM; in assay [2] it was 1.21 nM.

With `COc1ncc(-c2cc(NC(=O)c3cc(C(C)(C)N)cc(C(F)(F)F)c3)cnc2C)cc1C1(C(F)F)COC1` [Example 113, 3-(2-aminopropan-2-yl)-N-(5′-(3-(difluoromethyl)oxetan-3-yl)-6′-methoxy-2-methyl-[3,3′-bipyridin]-5-yl)-5-(trifluoromethyl)benzamide], the 50% inhibitory concentration (IC50) turned out to be 0.9 nM in assay [1] and 4.75 nM in assay [2].

`COc1ncc(-c2cc(NC(=O)c3cc(C(C)(C)N)cc(C(F)(F)F)c3)cnc2C)cc1C1(C#N)COC1` [Example 114, 3-(2-aminopropan-2-yl)-N-(5′-(3-cyanooxetan-3-yl)-6′-methoxy-2-methyl-[3,3′-bipyridin]-5-yl)-5-(trifluoromethyl)benzamide]: the IC50 stood at 3.26 nM in assay [1] and 17.5 nM in assay [2].

With `COc1ncc(-c2cc(NC(=O)c3ccnc(C(F)(F)F)c3)cnc2C)cc1C1(C#N)COC1` [Example 115, N-(5′-(3-cyanooxetan-3-yl)-6′-methoxy-2-methyl-[3,3′-bipyridin]-5-yl)-2-(trifluoromethyl)isonicotin-amide], the IC50 in assay [1] turned out to be 1.06 nM; in assay [2] it was 7.01 nM.

Take `COc1ncc(-c2cc(NC(=O)c3ccnc(C(C)(F)F)c3)cnc2C)cc1C1(C#N)COC1` [Example 116, N-(5′-(3-cyanooxetan-3-yl)-6′-methoxy-2-methyl-[3,3′-bipyridin]-5-yl)-2-(1,1-difluoroethyl)isonicotin-amide]: the IC50 turned out to be 1.25 nM in assay [1] and 6.22 nM in assay [2].
